In patent publication US11890279B2, “Quinolines that modulate SERCA and their use for treating disease” (Neurodon Corporation, priority 2020, dated 2024):

Experiments:
[1] = system: CSM14.1 cells; assay: ER stress cell survival assay (thapsigargin); format: cell-based; details: compound 2 μM; about 15 μM thapsigargin; CSM14.1 cells;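 also: survival read as CellTiter-Glo luminescence after overnight incubation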
Experimental: ER Stress Cell Survival Assay
CSM14.1 cells were maintained in Complete Medium at 32° C.; wherein the Complete Medium contained Dulbecco's modified eagle medium (DMEM) with 10% fetal bovine serum (FSB), 1% L-glutamine, 100 IU/mL penicillin, and 100 μg/mL streptomycin. The cells were recovered from cultures by trypsinization and then seeded in 384 well plates (Greiner #781098) at a concentration of 1,000 cells/well in 20 μL of DMEM Assay Medium, wherein the DMEM Assay Medium contained 2% FBS, 100 IU/mL penicillin, and 100 μg/mL streptomycin. Seeding was performed using a MultiDrop Combi reagent broadcaster. The plates were incubated overnight at 32° C.
A test compound was prepared by 2-fold serial dilution in 100% DMSO using a BIOMEK® 2000 liquid handler (Beckman Coulter). A dose-response curve containing 10 concentrations of the test compound was obtained. Using a BIOMEK® FX liquid handler (Beckman Coulter), 2.5 μL of the test compound was transferred from the 100% DMSO serial dilution plate to an intermediate plate containing 47.5 μL of DMEM Assay Medium containing 2% FBS, 100 IU/mL penicillin, and 100 μg/mL streptomycin and mixed. To reduce or eliminate the interference from the compound's precipitation, 6 μL of the diluted compound was immediately transferred to the assay plate to achieve a high compound concentration of 100 μM in 99% DMEM Assay Medium and 1% DMSO. After the assay plates were incubated for 2 hrs, 4 μL of 112.5 μM thapsigargin (TG) (DMSO stock diluted into Assay TC Medium) was dispensed into each testing well with a MultiDrop Combi reagent broadcaster for a final concentration of about 15 μM TG. The tissue culture media (4 μL) containing vehicle only was transferred manually to each control cell using a 16 channel electronic pipette. […] High luminescence indicates cell survival.
Alternatively, a test compound was tested at a single compound concentration (e.g., 2 μM) to determine the effect of the compound on cell survival in comparison with vehicle.

[2] = system: N2a cells; assay: Protection against hydrogen peroxide-induced cell death, N2a; format: cell-based, mouse; details: compound 40 μM; hydrogen peroxide 200 μM
Experimental: Protection against Hydrogen Peroxide-induced Cell-death. N2a cells grown in 96-well plates were exposed to a test compound (40 μM) for 2 hrs before addition of hydrogen peroxide (200 μM). After 40 min of incubation with hydrogen peroxide, ALAMARBLUE® regent (10% v/v) was added to the wells. Fluorescence reading was taken 2 hrs after the addition of the ALAMARBLUE® regent. Cell-viability was calculated as a percentage of relative fluorescence unit (RFU) compared to control.
The results are summarized in Table 2, where A represents a value greater than 50% cell rescue, B represents a value between 10% to 50% cell rescue, C represents a value between 1% to 10% cell rescue, and D represents a value no greater than 1% cell rescue.

[3] = Pharmacokinetics in CD-1 mice; format: in vivo, mouse; details: CD-1 mice
Experimental: Pharmacokinetics of test compounds were assessed in CD-1 mice. The compounds were formulated at 1 mg/mL in DMSO/Tween 80/water (10/10/80, vol/vol/vol) and dosed at 2 mg/kg intravenous (i.v.) or 10 mg/kg by oral gavage (P.O.) in triplicate. Blood was drawn at 0.25 h, 0.5 h, 1 hr, 2 hrs, 4 hrs, 8 hrs, and 24 hrs into EDTA containing tubes and plasma was harvested by centrifugation. Plasma (10 μL) containing 50% acetonitrile in water (5 μL) was added to 200 μL of ACN containing an internal standard. The samples were vortexed for 30 s. After centrifugation at […] and 4,000 rpm for 15 min, the supernatant was diluted 3 times with water. Then, 20 μL of diluted supernatant was injected into the LC/MS/MS system for quantitative analysis. The samples were injected onto an Agilent ZORBAX XDB-Phenyl 5μ column (50×2.10 mm). Mobile Phase A was water with 0.1% formic acid. Mobile Phase B was acetonitrile with 0.1% formic acid. Separation was achieved using a gradient of 70% A/30% B to 0% A/100% B over 2.10 min. A Shimadzu LCMS-8050 equipped with a turbo ion spray source was used for all analytical measurements. A positive ion MRM method was developed. Peak areas of the product ion were measured against the peak areas of the internal standard. Data was fit using WinNonLin (Pharsight Corporation, Mountain View, CA).

[4] = mouse, plasma, 2 mg/kg i.v. or 10 mg/kg P.O.

Row | Compound | Cell Survival [1] | N2a Cells (H2O2-induced) cell rescue [2] | further results
1 | Cc1ccc2cccc(NC(=O)c3cccc(Br)c3)c2n1 [Compound C16, 3-Bromo-N-(2-methylquinolin-8-yl)benzamide] | D (D represents a value no greater than 1%) | – | –
2 | Cc1ccc2cccc(NC(=O)c3ccc(Cl)s3)c2n1 [Compound G4, 5-Chloro-N-(2_methylquinolin-8-yl)thiophene-2-carboxamide] | – | B (B represents a value between 10% to 50% cell rescue) | –
3 | O=C(Nc1cccc2cccnc12)c1sc(Br)cc1Br [Compound H10, 3,5-Dibromo-N-(quinolin-8-yl)thiophene-2-carboxamide] | – | B (B represents a value between 10% to 50% cell rescue) | –
4 | Cc1ccc2cccc(NC(=O)c3ccc(Cl)cc3)c2n1 [Compound C17, 4-Chloro-N-(2-methylquinolin-8-yl)benzamide] | D (D represents a value no greater than 1%) | – | –
5 | Cc1ccsc1C(=O)Nc1cccc2cccnc12 [Compound H4, 3-Methyl-N-(quinolin-8-yl)thiophene-2-carboxamide] | – | A (A represents a value greater than 50% cell rescue) | –
6 | O=C(Nc1cccc2cccnc12)c1cccs1 [Compound H2, N-(quinolin-8-yl)thiophene-2-carboxamide] | – | B (B represents a value between 10% to 50% cell rescue) | –
7 | Cc1ccc2cccc(NC(=O)c3ccc([N+](=O)[O-])cc3)c2n1 [Compound C8, 4-Nitro-N-(2-methylquinolin-8-yl)benzamide] | D (D represents a value no greater than 1%) | – | –
8 | Cc1ccc2cccc(NC(=O)c3cccc([N+](=O)[O-])c3)c2n1 [Compound C7, 3-Nitro-N-(2-methylquinolin-8-yl)benzamide] | C (C represents a value between 1% and 10%) | – | –
9 | Cc1ccc2cccc(NC(=O)c3ccccc3F)c2n1 [Compound C2, 2-Fluoro-N-(2-methylquinolin-8-yl)benzamide] | A (A represents a value greater than 50%) | – | –
10 | CCOc1ccc(C(=O)Nc2cccc3ccc(C)nc23)cc1 [Compound C13, 4-Ethoxy-N-(2-methylquinolin-8-yl)benzamide] | D (D represents a value no greater than 1%) | – | –
11 | Cc1ccc2cccc(NC(=O)c3cc(Br)cs3)c2n1 [Compound G8, 4-Bromo-N-(2-methylquinolin-8-yl)thiophene-2-carboxamide] | – | – | F ([3]; 10 mg/kg P.O. vs 2 mg/kg i.v.): 0.12%; AUC [3, 4]: 0.78 ng·h/mL; Cmax [3, 4]: 10 nM; half-life [3, 4]: 36 min
12 | O=C(Nc1cccc2cccnc12)c1cc(Br)cs1 [Compound H9, 4-Bromo-N-(quinolin-8-yl)thiophene-2-carboxamide] | – | A (A represents a value greater than 50% cell rescue) | –
13 | Cc1ccc2cccc(NC(=O)c3cccs3)c2n1 [Compound G1, N-(2-Methylquinolin-8-yl)thiophene-2-carboxamide] | – | B (B represents a value between 10% to 50% cell rescue) | –
14 | Cc1ccc2cccc(NC(=O)c3ccccc3[N+](=O)[O-])c2n1 [Compound C3, 2-Nitro-N-(2-methylquinolin-8-yl)benzamide] | B (B represents a value between 10% and 50%) | – | –
15 | CC(=O)c1ccc(C(=O)Nc2cccc3ccc(C)nc23)s1 [Compound G5, 5-Acetyl-N-(2-methylquinolin-8-yl)thiophene-2-carboxamide] | – | B (B represents a value between 10% to 50% cell rescue) | –
16 | Cc1ccc2cccc(NC(=O)c3ccccc3Cl)c2n1 [Compound C9, 2-Chloro-N-(2-methylquinolin-8-yl)benzamide] | D (D represents a value no greater than 1%) | – | –

Row | Compound | Cell Survival [1] | N2a Cells (H2O2-induced) cell rescue [2] | further results
17 | Cc1ccc2cccc(NC(=O)c3ccc(SC(C)C)cc3)c2n1 [Compound C21, 4-(Isopropylthio)-N-(2-methylquinolin-8-yl)benzamide] | C (C represents a value between 1% and 10%) | – | –
18 | O=C(Nc1cccc2cccnc12)c1cc2ccccc2o1 [Compound H7, N-(Quinolin-8-yl)benzofuran-2-carboxamide] | – | B (B represents a value between 10% to 50% cell rescue) | –
19 | Cc1ccc(C(=O)Nc2cccc3cccnc23)s1 [Compound H3, 5-Methyl-N-(quinolin-8-yl)thiophene-2-carboxamide] | – | A (A represents a value greater than 50% cell rescue) | –
20 | CC(=O)c1ccc(C(=O)Nc2cccc3cccnc23)s1 [Compound H6, 5-Acetyl-N-(quinolin-8-yl)thiophene-2-carboxamide] | – | B (B represents a value between 10% to 50% cell rescue) | –
21 | Cc1ccc2cccc(NC(=O)c3cccc(Cl)c3)c2n1 [Compound C15, 3-Chloro-N-(2-methylquinolin-8-yl)benzamide] | D (D represents a value no greater than 1%) | – | –
22 | O=C(Nc1cccc2cccnc12)c1ccc([N+](=O)[O-])s1 [Compound H8, 5-Nitro-N-(quinolin-8-yl)thiophene-2-carboxamide] | – | B (B represents a value between 10% to 50% cell rescue) | –
23 | O=C(Nc1cccc2cccnc12)c1ccc(Br)s1 [Compound H1, 5-Bromo-N-(quinolin-8-yl)thiophene-2-carboxamide] | – | B (B represents a value between 10% to 50% cell rescue) | –
24 | Cc1ccc2cccc(NC(=O)c3sccc3C)c2n1 [Compound G3, 3-Methyl-N-(2-methylquinolin-8-yl)thiophene-2-carboxamide] | – | B (B represents a value between 10% to 50% cell rescue) | –
25 | CCSc1ccc(C(=O)Nc2cccc3ccc(C)nc23)cc1 [Compound C22, 4-(Ethylthio)-N-(2-methylquinolin-8-yl)benzamide] | D (D represents a value no greater than 1%) | – | –
26 | Cc1ccc2cccc(NC(=O)c3cccc(F)c3)c2n1 [Compound C6, 3-Fluoro-N-(2-methylquinolin-8-yl)benzamide] | C (C represents a value between 1% and 10%) | – | –
27 | O=C(Nc1cccc2cccnc12)c1cc(Br)c(Br)s1 [Compound H11, 4,5-Dibromo-N-(quinolin-8-yl)thiophene-2-carboxamide] | – | A (A represents a value greater than 50% cell rescue) | –
28 | Cc1ccc2cccc(NC(=O)c3cccc(OC(F)(F)F)c3)c2n1 [Compound C4, 3-Trifluoromethoxy-N-(2-methylquinolin-8-yl)benzamide] | B (B represents a value between 10% and 50%) | – | –
29 | Cc1ccc2cccc(NC(=O)c3ccc(Br)cc3)c2n1 [Compound C1, 4-Bromo-N-(2-methylquinolin-8-yl)benzamide] | A (A represents a value greater than 50%) | – | –
30 | Cc1ccc2cccc(NC(=O)c3ccc(F)cc3)c2n1 [Compound C14, 4-Fluoro-N-(2-methylquinolin-8-yl)benzamide] | D (D represents a value no greater than 1%) | – | –
31 | Cc1ccc2cccc(NC(=O)c3cccc(C(F)(F)F)c3)c2n1 [Compound C12, 3-Trifluoromethyl-N-(2-methylquinolin-8-yl)benzamide] | D (D represents a value no greater than 1%) | – | –
32 | O=C(Nc1cccc2cccnc12)c1ccc(Cl)s1 [Compound H5, 5-Chloro-N-(quinolin-8-yl)thiophene-2-carboxamide] | – | B (B represents a value between 10% to 50% cell rescue) | –
